Reference: PMC7753147, “High-throughput determination of protein affinities using unmodified peptide libraries in nanomolar scale” (iScience, 2020)

Key:
gephE = test: µSPOT peptide microarray binding assay with recombinant gephE; conditions: normalized to most prominent spot, n = 2 array-internal duplicate
native geph = test: µSPOT peptide microarray binding assay with native geph from mouse brain lysate; conditions: normalized to most prominent spot, n = 2 array-internal duplicate
[1] = overlapping GABAAR α3 peptide library on µSPOT array, 20 nM gephE
[2] = overlapping GABAAR α3 peptide library on µSPOT array, 6% mouse brain lysate
[3] = overlapping GlyR β peptide library on µSPOT array, 50 nM gephE, anti-gephyrin 3B11/HRP chemiluminescence
[4] = overlapping GlyR β peptide library on µSPOT array, 3% mouse brain lysate

Row | Sequence | gephE Binding Intensity [norm.] (gephE; [1]) | Native geph Binding Intensity [norm.] (native geph; [2]) | gephE Binding Intensity [norm.] (gephE; [3]) | Native geph Binding Intensity [norm.] (native geph; [4])
1 | AAPSASSTPTAIASPKATYV [GABAAR α3 residues 420-439, µSpot library] | 0.038 | 0.080 |  | 
2 | NNGLGKPQAKNKKPPPAKPV [Glycine receptor subunit beta_033, GlyR β residues 445-464] |  |  | 0.055 | 0.041
3 | TPAAPTKKNTTFNIVGTTYP [GABAAR α3 residues 384-403, µSpot library] | 0.948 | 1.000 |  | 
4 | KSAAAPSASSTPTAIASPKA [GABAAR α3 residues 417-436, µSpot library] | 0.030 | 0.103 |  | 
5 | IEVNNGLGKPQAKNKKPPPA [Glycine receptor subunit beta_032, GlyR β residues 442-461] |  |  | 0.009 | 0.075
6 | PEALEMKKKTPAAPTKKNTT [GABAAR α3 residues 375-394, µSpot library] | 0.038 | 0.071 |  | 
7 | ADGKGGNAAKKNTVNGTGTP [Glycine receptor subunit beta_009] |  |  | 0.015 | 0.067
8 | LGKPQAKNKKPPPAKPVIPT [Glycine receptor subunit beta_034, GlyR β residues 448-467] |  |  | 0.022 | 0.061
9 | LEMKKKTPAAPTKKNTTFNI [GABAAR α3 residues 378-397, µSpot library] | 0.059 | 0.085 |  | 
10 | NLAKDTEFSTISKSAAAPSA [GABAAR α3 residues 405-424, µSpot library] | 0.029 | 0.122 |  | 

The next lines start with the values.

Row | gephE Binding Intensity [norm.] (gephE; [1]) | Native geph Binding Intensity [norm.] (native geph; [2]) | gephE Binding Intensity [norm.] (gephE; [3]) | Native geph Binding Intensity [norm.] (native geph; [4]) | Sequence
11 |  |  | 0.645 | 0.379 | CTSKSDLRSNDFSIVGSLPR [Glycine receptor subunit beta_021, GlyR β residues 409-428]
12 | 0.053 | 0.115 |  |  | KKKTPAAPTKKNTTFNIVGT [GABAAR α3 residues 381-400, µSpot library]
13 |  |  | 0.008 | 0.087 | TVNGTGTPVHISTLQVGETR [Glycine receptor subunit beta_013]
14 | 0.039 | 0.114 |  |  | YPINLAKDTEFSTISKSAAA [GABAAR α3 residues 402-421, µSpot library]
15 | 0.062 | 0.048 |  |  | NYFTKRSWAWEGKKVPEALE [GABAAR α3 residues 360-379, µSpot library]
16 | 1.000 | 0.767 |  |  | APTKKNTTFNIVGTTYPINL [GABAAR α3 residues 387-406, µSpot library]
17 |  |  | 0.016 | 0.068 | KNKKPPPAKPVIPTAAKRID [Glycine receptor subunit beta_036, GlyR β residues 454-473]
18 |  |  | 0.016 | 0.054 | TLQVGETRCKKVCTSKSDLR [Glycine receptor subunit beta_017, GlyR β residues 397-416]
19 | 0.038 | 0.081 |  |  | KKVPEALEMKKKTPAAPTKK [GABAAR α3 residues 372-391, µSpot library]
20 |  |  | 1.000 | 1.000 | LRSNDFSIVGSLPRDFELSN [Glycine receptor subunit beta_023, GlyR β residues 415-434]
21 | 0.048 | 0.105 |  |  | WEGKKVPEALEMKKKTPAAP [GABAAR α3 residues 369-388, µSpot library]
